Key:
[1] = test system: actinic keratosis (AK) cell line HT297.T; test: XTT proliferation assay in actinic keratosis cell line; assay type: cell-based; settings: 72 h, 3 days treatment, HT297.T cells
Method: IC50 values were calculated from the mean of triplicate wells for each experiment. […]

[2] = test system: UVB-damaged skin in SKH-1 mice; test: Skin lesion formation induced by UVB, damaged skin mouse model of actinic keratosis; assay type: in vivo
Excerpt: The efficacy of Compound C was further evaluated in an animal model of Actinic Keratosis (AK). The purpose of the study was to determine the effect of compound C against lesion formation in UVB-damaged skin in SKH-1 mice, a mouse model of AK and non-melanoma skin cancers.
The study was divided to two parts: pre-study that included UVB irradiation to induce the damage to the skin, and efficacy study that included the treatment with Compound C compared to standard treatment and efficacy evaluation. After 16 weeks of UVB irradiation, 60% of the animals developed lesions, and treatment was started on week 17 and continued for 7.5 weeks. The total duration of the study was 23.5 weeks.
The study included female mice, 6-8 weeks of age at study initiation. After 16 weeks of UVB irradiation, when 60% (36/60) of the animals developed at least 1 lesion, mice were randomly stratified into 12 mice per group (see Table 4) according to score and number of lesions. Picato gel (Ingenol mebutate, Leo Pharma Inc.) was used as the positive control.
For UVB irradiation, Vilber-Lourmat (France) Lamp VL-6.M was used, irradiating at 312 nm with an intensity of 0.89 mW/cm^2 at a distance of 15 cm. Determination of UVB irradiation Minimal Erythemal Dose (MED) was performed prior to the beginning of the study (during the pre-study period). Animals were UVB irradiated during different time periods (starting at 30 sec) and the presence of erythema was recorded 24 and 48 hours later.
Observations for clinical scoring and signs of erythema and edema, were performed twice a week. Erythema and edema scoring were performed according to the grading levels described in Table 5 below. Lesion numbers were determined once a week during Weeks 4-6 and twice a week during Weeks 7-16 until treatment started. During treatment, lesion number and erythema-edema scores were performed twice a week.

[3] = test system: reconstituted three-dimensional human epidermis model (EPISKIN-Standard Model); test: Skin irritation assay, reconstituted human epidermis model EPISKIN-SM; settings: 15 minutes application, 42 hours post-incubation
Method: (§1) In order to test the toxicity of jasmonate ester derivatives in human skin, skin irritation assay using a reconstituted three-dimensional human epidermis model (EPISKIN-Standard Model™; conducted at BSL-Bioservices, Planegg, Germany) was performed.
(§2) Irritant potential of the compound was assessed from the relative mean tissue viabilities obtained compared to the corresponding negative control tissues concurrently treated with Aqua Dest (distilled water). The release of Interleukin-1α (IL-1α) into the tissue culture medium was determined to confirm the obtained results.

[4] = test system: reconstituted three-dimensional human epidermis model (EpiDerm skin model); test: Skin corrosion assay, EpiDerm skin model; assay type: cell-based
Method: In particular, MJ was applied topically to the EpiDerm™ tissue and incubated for 3 and 60 minutes at each time. After the incubation period, tissue viability was assessed via MTT reduction assay.

[5] = test system: malignant keratinocytes A431 cell line; settings: cited from earlier work
[6] = test system: cervical cancer cell lines; settings: range of cervical cancer cell lines; cited from earlier work
[7] = test system: reconstituted three-dimensional human epidermis model (EPISKIN-Standard Model)
Method: as §1, §2

lymphomas in mice = settings: cited from earlier work
[8] = assay type: in vitro ADME; settings: human
Method: These studies were conducted by BSL-Bioservices (Planegg, Germany) and the samples were analyzed by ATC (Liege, Belgium).

[9] = test system: metastatic melanoma cells; settings: cited from earlier work

SMILES: CC/C=C\CC1C(=O)CCC1CC(=O)Oc1cccc2cccnc12 (stereo not shown) [Compound C]
- IC50 [1]: 0.25 µM
- maximal reduction in lesion number on Day 50 ([2]; Compound C 2.5% topical, group 3F): 65%
- maximal reduction in lesion number on Day 50 ([2]; Compound C 40% topical, group 5F): 72%
- maximal reduction in lesion number on Day 50 ([2]; group 4F (5% topical per Table 4)): 70%
- histopathology evaluation of skin ([2]; groups treated with compound C): look similar to naïve (healthy) animals
- gross pathology examination ([2]; mouse, in vivo): No abnormality was detected
- skin erythema or edema following topical treatment ([2]; mouse, in vivo): no skin erythema or edema
- reduction in total area of lesions and total tumor area ([2]; topical, concentration not given): 70%

SMILES: CCCCCCCCCCCCOS(=O)(=O)[O-].[Na+] [5% SDS solution]
- Mean relative tissue viability (%) (MTT reduction) [3]: 3.3 ± 0.6%
- IL-1α release ([3]; tissue culture medium): 236.7 ± 23.0 pg/mL

SMILES: [K+].[OH-] [8N KOH]
- Mean relative tissue viability (%) (MTT reduction) after 3 minutes ([4]; 3 minutes treatment): 26 ± 5.3%
- Mean relative tissue viability (%) (MTT reduction) after 60 minutes ([4]; 60 minutes treatment): 14 ± 3.7%

SMILES: CC/C=C\C[C@H]1C(=O)CC[C@@H]1CC(=O)O [jasmonic acid]
- toxicity on A431 cell line [5]: low toxicity

SMILES: CC/C=C\CC1C(=O)CCC1CC(=O)OC (stereo not shown) [MJ, methyl jasmonate]
- cytotoxicity [6]: cytotoxic
- irritation classification according to ECVAM SIVS recommendations [7]: non-irritant
- IC50 [1]: 21.1 µM
- prevention of development of lymphomas (lymphomas in mice): effective
- corrosion classification according to OECD Guideline and EC Commission Regulation [4]: non-corrosive
- local intra-skin concentrations [8]: ~1 M
- cell motility [9]: suppresses cell motility
- development of lung metastases [9]: inhibits the development of lung metastases
- toxicity on A431 cell line [5]: low toxicity

— patent US9284252B2, “Use of jasmonate ester derivatives for treating benign hyperproliferative skin disorders” (SEPAL PHARMA LTD., priority 2009, dated 2016)
